Experiments:
Assay in all cases: radiometric filter-binding kinase assay, Kinase HotSpot
Conditions in all cases: compound 0.5 µM; ATP 10 µM
EPHB3 (human) = EPHB3 (human) (UniProt P54753)
EPHB4 (human) = EPHB4 (human) (UniProt P54760)
CSNK1D (human) = CSNK1D (human) (UniProt P48730)
PDGFRA (human) = PDGFRA (human) (UniProt P16234)
CHEK2 (human) = CHEK2 (human) (UniProt O96017)
CDK4 CCND1 (human) = CDK4 CCND1 (human) (UniProt P24385+P11802)
TEC (human) = TEC (human) (UniProt P42680)
PAK4 (human) = PAK4 (human) (UniProt O96013)
ERBB2 (human) = ERBB2 (human) (UniProt P04626)
[1] = molecular target: TYK2 JH1 catalytic (human) (UniProt P29597)
PLK1 (human) = PLK1 (human) (UniProt P53350)
DCLK2 (human) = DCLK2 (human) (UniProt Q8N568)
MST1R (human) = MST1R (human) (UniProt Q04912)
TBK1 (human) = TBK1 (human) (UniProt Q9UHD2)
MAPK14 (human) = MAPK14 (human) (UniProt Q16539)
JAK3 JH1 JH2 (human) = JAK3 JH1 JH2 (human) (UniProt P52333)
RIPK2 (human) = RIPK2 (human) (UniProt O43353)
ROCK1 (human) = ROCK1 (human) (UniProt Q13464)
FER (human) = FER (human) (UniProt P16591)
MAPK12 (human) = MAPK12 (human) (UniProt P53778)
PRKCB1 (human) = PRKCB1 (human) (UniProt P05771)
Sequence of PRKCB1 (human) (P05771 whole entry, looked up): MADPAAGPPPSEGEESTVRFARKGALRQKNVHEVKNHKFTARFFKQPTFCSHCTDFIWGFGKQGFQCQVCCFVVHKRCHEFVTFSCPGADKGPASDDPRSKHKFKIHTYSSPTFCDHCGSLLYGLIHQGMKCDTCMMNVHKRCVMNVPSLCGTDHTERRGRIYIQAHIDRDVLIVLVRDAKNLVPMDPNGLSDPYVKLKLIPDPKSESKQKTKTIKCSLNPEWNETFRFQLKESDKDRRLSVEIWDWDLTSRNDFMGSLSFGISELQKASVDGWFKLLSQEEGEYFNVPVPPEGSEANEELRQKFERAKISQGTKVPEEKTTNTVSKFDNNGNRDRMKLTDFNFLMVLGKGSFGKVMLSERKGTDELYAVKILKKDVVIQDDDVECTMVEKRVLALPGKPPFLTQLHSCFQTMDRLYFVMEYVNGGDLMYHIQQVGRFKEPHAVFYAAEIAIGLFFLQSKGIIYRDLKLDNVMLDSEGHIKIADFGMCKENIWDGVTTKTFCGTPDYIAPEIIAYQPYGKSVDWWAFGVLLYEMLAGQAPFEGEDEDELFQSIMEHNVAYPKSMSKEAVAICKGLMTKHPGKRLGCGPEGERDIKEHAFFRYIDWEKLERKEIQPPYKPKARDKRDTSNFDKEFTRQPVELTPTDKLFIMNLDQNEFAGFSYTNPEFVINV

NEK2 (human) = NEK2 (human) (UniProt P51955)
AKT1 (human) = AKT1 (human) (UniProt P31749)
Sequence of AKT1 (human) (P31749 whole entry, looked up): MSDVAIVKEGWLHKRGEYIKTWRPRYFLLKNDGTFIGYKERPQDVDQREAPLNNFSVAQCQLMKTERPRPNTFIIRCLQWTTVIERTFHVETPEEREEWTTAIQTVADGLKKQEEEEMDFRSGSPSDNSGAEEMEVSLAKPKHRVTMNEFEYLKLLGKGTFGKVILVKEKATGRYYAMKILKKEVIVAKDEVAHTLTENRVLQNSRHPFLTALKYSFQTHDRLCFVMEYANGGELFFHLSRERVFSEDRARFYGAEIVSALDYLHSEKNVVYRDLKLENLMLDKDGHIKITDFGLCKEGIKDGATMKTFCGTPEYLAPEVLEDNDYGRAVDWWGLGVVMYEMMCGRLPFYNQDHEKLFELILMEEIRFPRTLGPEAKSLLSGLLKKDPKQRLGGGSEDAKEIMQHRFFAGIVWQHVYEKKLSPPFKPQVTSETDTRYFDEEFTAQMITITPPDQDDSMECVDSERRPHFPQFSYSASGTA

EPHA2 (human) = EPHA2 (human) (UniProt P29317)
CDK4 CCND3 (human) = CDK4 CCND3 (human) (UniProt P30281+P11802)
Sequence of CDK4 CCND3 (human) (P11802 whole entry, looked up): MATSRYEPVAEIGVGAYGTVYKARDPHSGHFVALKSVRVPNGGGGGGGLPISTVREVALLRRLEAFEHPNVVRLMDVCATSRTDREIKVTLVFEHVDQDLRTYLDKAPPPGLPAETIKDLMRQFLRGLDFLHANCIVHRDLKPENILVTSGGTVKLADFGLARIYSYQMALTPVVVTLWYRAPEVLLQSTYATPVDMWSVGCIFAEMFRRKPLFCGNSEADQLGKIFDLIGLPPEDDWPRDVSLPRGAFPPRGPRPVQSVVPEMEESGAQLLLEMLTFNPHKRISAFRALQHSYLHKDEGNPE
Sequence of CDK4 CCND3 (human) (P30281 whole entry, looked up): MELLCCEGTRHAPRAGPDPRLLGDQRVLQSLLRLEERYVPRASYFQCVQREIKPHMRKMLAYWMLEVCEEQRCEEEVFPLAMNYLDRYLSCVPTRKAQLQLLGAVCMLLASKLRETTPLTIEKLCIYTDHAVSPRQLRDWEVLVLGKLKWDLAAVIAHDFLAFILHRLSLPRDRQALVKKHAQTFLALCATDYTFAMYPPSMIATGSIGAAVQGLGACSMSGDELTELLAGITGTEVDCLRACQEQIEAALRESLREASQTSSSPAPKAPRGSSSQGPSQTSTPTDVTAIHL

STK17A (human) = STK17A (human) (UniProt Q9UEE5)
MAPK11 (human) = MAPK11 (human) (UniProt Q15759)
CLK3 (human) = CLK3 (human) (UniProt P49761)
DAPK1 (human) = DAPK1 (human) (UniProt P53355)
ACVR1 (human) = ACVR1 (human) (UniProt Q04771)
AURKB (human) = AURKB (human) (UniProt Q96GD4)
MAP3K14 (human) = MAP3K14 (human) (UniProt Q99558)
MERTK (human) = MERTK (human) (UniProt Q12866)
TXK (human) = TXK (human) (UniProt P42681)
MAP3K5 (human) = MAP3K5 (human) (UniProt Q99683)
Sequence of MAP3K5 (human) (Q99683 whole entry, looked up): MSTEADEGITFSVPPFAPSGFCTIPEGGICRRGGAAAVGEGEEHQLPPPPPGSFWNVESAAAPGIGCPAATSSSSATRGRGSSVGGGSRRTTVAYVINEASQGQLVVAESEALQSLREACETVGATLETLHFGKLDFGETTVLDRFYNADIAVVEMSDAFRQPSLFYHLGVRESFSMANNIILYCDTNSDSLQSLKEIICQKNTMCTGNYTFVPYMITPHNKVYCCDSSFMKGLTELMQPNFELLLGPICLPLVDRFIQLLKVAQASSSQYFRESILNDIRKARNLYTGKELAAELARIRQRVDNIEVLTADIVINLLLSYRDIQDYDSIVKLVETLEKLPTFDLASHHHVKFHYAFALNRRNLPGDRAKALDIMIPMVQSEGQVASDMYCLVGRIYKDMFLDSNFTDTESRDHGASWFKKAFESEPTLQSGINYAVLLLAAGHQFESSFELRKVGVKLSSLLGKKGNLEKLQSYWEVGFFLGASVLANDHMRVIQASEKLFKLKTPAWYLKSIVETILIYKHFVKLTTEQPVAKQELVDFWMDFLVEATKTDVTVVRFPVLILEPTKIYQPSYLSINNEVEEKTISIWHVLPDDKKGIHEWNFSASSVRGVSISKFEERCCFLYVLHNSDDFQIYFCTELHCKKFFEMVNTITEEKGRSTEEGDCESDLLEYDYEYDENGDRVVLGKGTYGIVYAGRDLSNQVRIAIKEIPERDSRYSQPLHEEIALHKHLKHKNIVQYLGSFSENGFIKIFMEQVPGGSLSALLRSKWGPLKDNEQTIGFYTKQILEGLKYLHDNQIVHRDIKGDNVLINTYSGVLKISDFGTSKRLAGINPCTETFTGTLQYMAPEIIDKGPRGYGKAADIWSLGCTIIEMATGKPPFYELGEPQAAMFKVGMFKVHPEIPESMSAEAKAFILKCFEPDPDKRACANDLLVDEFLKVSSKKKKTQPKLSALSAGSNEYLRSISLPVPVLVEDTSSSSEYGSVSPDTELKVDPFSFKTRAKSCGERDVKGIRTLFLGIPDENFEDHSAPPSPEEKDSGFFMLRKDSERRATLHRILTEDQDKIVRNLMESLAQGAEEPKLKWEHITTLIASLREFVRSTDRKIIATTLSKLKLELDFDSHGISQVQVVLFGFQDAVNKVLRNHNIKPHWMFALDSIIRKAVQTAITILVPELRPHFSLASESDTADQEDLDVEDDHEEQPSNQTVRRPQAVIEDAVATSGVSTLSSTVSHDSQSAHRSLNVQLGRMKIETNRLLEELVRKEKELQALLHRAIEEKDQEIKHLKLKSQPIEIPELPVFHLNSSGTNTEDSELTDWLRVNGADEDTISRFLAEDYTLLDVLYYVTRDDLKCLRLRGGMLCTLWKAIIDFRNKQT

FYN (human) = FYN (human) (UniProt P06241)
PIM1 (human) = PIM1 (human) (UniProt P11309)
Sequence of PIM1 (human) (P11309 whole entry, looked up): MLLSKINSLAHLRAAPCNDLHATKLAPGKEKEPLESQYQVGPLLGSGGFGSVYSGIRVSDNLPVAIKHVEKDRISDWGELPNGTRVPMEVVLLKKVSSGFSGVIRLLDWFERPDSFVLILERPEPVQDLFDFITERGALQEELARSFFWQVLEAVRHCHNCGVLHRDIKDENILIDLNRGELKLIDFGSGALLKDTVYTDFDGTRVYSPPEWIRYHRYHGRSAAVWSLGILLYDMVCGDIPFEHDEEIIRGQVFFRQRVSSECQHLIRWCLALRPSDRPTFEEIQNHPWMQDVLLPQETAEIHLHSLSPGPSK

CDC42BPB (human) = CDC42BPB (human) (UniProt Q9Y5S2)
PHKG1 (human) = PHKG1 (human) (UniProt Q16816)
CDK6 CCND1 (human) = CDK6 CCND1 (human) (UniProt Q00534+P24385)
KDR (human) = KDR (human) (UniProt P35968)
TGFBR2 (human) = TGFBR2 (human) (UniProt P37173)

Sequence of CSNK1D (human) (P48730 whole entry, looked up): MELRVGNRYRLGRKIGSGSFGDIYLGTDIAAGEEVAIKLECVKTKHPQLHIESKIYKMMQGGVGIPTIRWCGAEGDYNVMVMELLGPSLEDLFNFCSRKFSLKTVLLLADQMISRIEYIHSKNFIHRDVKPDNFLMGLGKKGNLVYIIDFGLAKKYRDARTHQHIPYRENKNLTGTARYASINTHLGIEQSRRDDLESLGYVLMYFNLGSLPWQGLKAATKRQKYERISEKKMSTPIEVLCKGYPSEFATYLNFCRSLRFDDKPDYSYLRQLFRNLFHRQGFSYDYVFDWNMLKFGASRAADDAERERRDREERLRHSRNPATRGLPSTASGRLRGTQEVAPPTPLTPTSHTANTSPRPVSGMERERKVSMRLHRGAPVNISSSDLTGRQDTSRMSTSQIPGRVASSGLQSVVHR
Sequence of CHEK2 (human) (O96017 whole entry, looked up): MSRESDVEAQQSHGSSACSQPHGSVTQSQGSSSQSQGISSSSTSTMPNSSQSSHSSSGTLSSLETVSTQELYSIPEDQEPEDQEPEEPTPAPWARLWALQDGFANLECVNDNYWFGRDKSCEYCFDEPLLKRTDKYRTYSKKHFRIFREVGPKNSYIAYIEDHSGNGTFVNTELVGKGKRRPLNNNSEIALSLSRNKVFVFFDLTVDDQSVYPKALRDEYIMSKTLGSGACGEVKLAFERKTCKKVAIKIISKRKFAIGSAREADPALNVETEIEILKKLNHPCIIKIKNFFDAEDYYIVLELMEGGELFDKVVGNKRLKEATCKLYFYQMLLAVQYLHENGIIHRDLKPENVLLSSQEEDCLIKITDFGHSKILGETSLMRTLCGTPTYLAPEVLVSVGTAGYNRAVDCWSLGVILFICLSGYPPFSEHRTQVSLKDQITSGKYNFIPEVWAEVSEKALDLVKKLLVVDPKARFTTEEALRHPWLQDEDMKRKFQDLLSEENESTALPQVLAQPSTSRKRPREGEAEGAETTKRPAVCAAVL
Sequence of CDK4 CCND1 (human) (P11802 whole entry, looked up): as the sequence (P11802 whole entry, looked up) above
Sequence of CDK4 CCND1 (human) (P24385 whole entry, looked up): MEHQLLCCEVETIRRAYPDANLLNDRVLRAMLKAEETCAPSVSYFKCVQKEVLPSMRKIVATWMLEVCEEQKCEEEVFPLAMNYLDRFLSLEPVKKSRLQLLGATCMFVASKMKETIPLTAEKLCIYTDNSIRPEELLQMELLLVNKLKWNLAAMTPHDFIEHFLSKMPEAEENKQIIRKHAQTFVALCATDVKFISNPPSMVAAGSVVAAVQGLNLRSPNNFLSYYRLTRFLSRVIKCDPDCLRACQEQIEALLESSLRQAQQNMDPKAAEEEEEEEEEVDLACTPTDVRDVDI

CCCNC(=O)Nc1ccc(Oc2ncnc3cc(OC)c(OC)cc23)cc1Cl
residual activity (EPHB3 (human)): 93.7%
residual activity (EPHB4 (human)): 89.4%
residual activity (CSNK1D (human)): 98.9%
residual activity (PDGFRA (human)): 92.2%
residual activity (CHEK2 (human)): 80%
residual activity (CDK4 CCND1 (human)): 102%
residual activity (TEC (human)): 119%
residual activity (PAK4 (human)): 95.7%
residual activity (ERBB2 (human)): 116%
residual activity [1]: 95.2%
residual activity (PLK1 (human)): 101%
residual activity (DCLK2 (human)): 96.4%
residual activity (MST1R (human)): 89.3%
residual activity (TBK1 (human)): 90%
residual activity (MAPK14 (human)): 122%
residual activity (JAK3 JH1 JH2 (human)): 88.9%
residual activity (RIPK2 (human)): 84.8%
residual activity (ROCK1 (human)): 99.7%
residual activity (FER (human)): 74.1%
residual activity (MAPK12 (human)): 61.9%
residual activity (PRKCB1 (human)): 100%
residual activity (NEK2 (human)): 92.3%
residual activity (AKT1 (human)): 93%
residual activity (EPHA2 (human)): 104%
residual activity (CDK4 CCND3 (human)): 101%
residual activity (STK17A (human)): 99%
residual activity (MAPK11 (human)): 88.5%
residual activity (CLK3 (human)): 98.8%
residual activity (DAPK1 (human)): 104%
residual activity (ACVR1 (human)): 101%
residual activity (AURKB (human)): 37%
residual activity (MAP3K14 (human)): 109%
residual activity (MERTK (human)): 67.7%
residual activity (TXK (human)): 101%
residual activity (MAP3K5 (human)): 102%
residual activity (FYN (human)): 92.7%
residual activity (PIM1 (human)): 102%
residual activity (CDC42BPB (human)): 87.4%
residual activity (PHKG1 (human)): 91.3%
residual activity (CDK6 CCND1 (human)): 92.9%
residual activity (KDR (human)): 19.7%
residual activity (TGFBR2 (human)): 109%

O=C1Nc2ccccc2/C1=C\c1c(Cl)[nH]c2ccccc12
residual activity (EPHB3 (human)): 91.3%
residual activity (EPHB4 (human)): 90.2%
residual activity (CSNK1D (human)): 90.5%
residual activity (PDGFRA (human)): 88.7%
residual activity (CHEK2 (human)): 99.4%
residual activity (CDK4 CCND1 (human)): 98.4%
residual activity (TEC (human)): 124%
residual activity (PAK4 (human)): 104%
residual activity (ERBB2 (human)): 97.3%
residual activity [1]: 110%
residual activity (PLK1 (human)): 95.4%
residual activity (DCLK2 (human)): 93.5%
residual activity (MST1R (human)): 97.5%
residual activity (TBK1 (human)): 95.9%
residual activity (MAPK14 (human)): 101%
residual activity (JAK3 JH1 JH2 (human)): 102%
residual activity (RIPK2 (human)): 85.4%
residual activity (ROCK1 (human)): 101%
residual activity (FER (human)): 91.8%
residual activity (MAPK12 (human)): 93%
residual activity (PRKCB1 (human)): 105%
residual activity (NEK2 (human)): 99%
residual activity (AKT1 (human)): 94%
residual activity (EPHA2 (human)): 97.3%
residual activity (CDK4 CCND3 (human)): 97.4%
residual activity (STK17A (human)): 95.2%
residual activity (MAPK11 (human)): 94.5%
residual activity (CLK3 (human)): 102%
residual activity (DAPK1 (human)): 88.1%
residual activity (ACVR1 (human)): 100%
residual activity (AURKB (human)): 97.9%
residual activity (MAP3K14 (human)): 92.6%
residual activity (MERTK (human)): 88.2%
residual activity (TXK (human)): 99.6%
residual activity (MAP3K5 (human)): 107%
residual activity (FYN (human)): 101%
residual activity (PIM1 (human)): 88.5%
residual activity (CDC42BPB (human)): 102%
residual activity (PHKG1 (human)): 85.4%
residual activity (CDK6 CCND1 (human)): 105%
residual activity (KDR (human)): 96.3%
residual activity (TGFBR2 (human)): 95.6%

Nc1nc(Nc2ccc(S(N)(=O)=O)cc2)nn1C(=O)c1c(F)cccc1F
residual activity (EPHB3 (human)): 98.5%
residual activity (EPHB4 (human)): 81%
residual activity (CSNK1D (human)): 94.5%
residual activity (PDGFRA (human)): 82%
residual activity (CHEK2 (human)): 63.6%
residual activity (CDK4 CCND1 (human)): 20%
residual activity (TEC (human)): 122%
residual activity (PAK4 (human)): 90%
residual activity (ERBB2 (human)): 91.1%
residual activity [1]: 0.878%
residual activity (PLK1 (human)): 97.5%
residual activity (DCLK2 (human)): 85.3%
residual activity (MST1R (human)): 115%
residual activity (TBK1 (human)): 80%
residual activity (MAPK14 (human)): 97.8%
residual activity (JAK3 JH1 JH2 (human)): 8.5%
residual activity (RIPK2 (human)): 77.8%
residual activity (ROCK1 (human)): 42.6%
residual activity (FER (human)): 82%
residual activity (MAPK12 (human)): 89.9%
residual activity (PRKCB1 (human)): 88.2%
residual activity (NEK2 (human)): 94.8%
residual activity (AKT1 (human)): 120%
residual activity (EPHA2 (human)): 80.9%
residual activity (CDK4 CCND3 (human)): 34.7%
residual activity (STK17A (human)): 83.9%
residual activity (MAPK11 (human)): 94%
residual activity (CLK3 (human)): 65.8%
residual activity (DAPK1 (human)): 93.8%
residual activity (ACVR1 (human)): 104%
residual activity (MAP3K14 (human)): 106%
residual activity (MERTK (human)): 70.2%
residual activity (TXK (human)): 95.8%
residual activity (MAP3K5 (human)): 103%
residual activity (FYN (human)): 78.6%
residual activity (PIM1 (human)): 97.6%
residual activity (CDC42BPB (human)): 96%
residual activity (PHKG1 (human)): 102%
residual activity (CDK6 CCND1 (human)): 17.1%
residual activity (KDR (human)): 64.6%
residual activity (TGFBR2 (human)): 98.5%

— the kinase profiling compilation of Christmann-Franck et al. (2016)
